Assay results: patent publication US8697700B2, “Piperazinone-substituted tetrahydro-carboline MCH-1 antagonists, methods of making, and uses thereof” (Albany Molecular Research, Inc., priority 2010, dated 2014)
pKi: −log10 of the molar value. Counter-ions that a name gives are not always drawn.

Columns and labels:
human MCH-1 receptor = molecular target: T1, human MCH-1 receptor (Homo sapiens, UniProt Q99705); assay: Binding assay for human MCH-1 receptor (radioligand displacement); conditions: membranes from CHO-K1 cells expressing human MCH-1 receptor; 1.4 nM [3H]-labeled compound; 60 min at 25° C.; Ki from Cheng Prusoff equation; read-out: MCH1 Ki
T1 construct: purchased Euroscreen Batch 1138
T1 sequence (Q99705 whole entry): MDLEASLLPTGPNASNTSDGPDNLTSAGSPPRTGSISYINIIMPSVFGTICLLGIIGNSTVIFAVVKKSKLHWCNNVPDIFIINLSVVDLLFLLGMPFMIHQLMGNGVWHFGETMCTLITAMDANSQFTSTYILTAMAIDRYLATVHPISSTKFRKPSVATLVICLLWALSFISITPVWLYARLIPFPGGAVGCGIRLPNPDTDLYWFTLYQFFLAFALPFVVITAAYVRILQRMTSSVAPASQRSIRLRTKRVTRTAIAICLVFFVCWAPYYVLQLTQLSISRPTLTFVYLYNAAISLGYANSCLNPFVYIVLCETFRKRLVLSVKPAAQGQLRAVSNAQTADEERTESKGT
Protocol: Evaluation of the affinity of compounds for the human MCH-1 receptor was accomplished using 4-(3,4,5-tritritiumbenzyloxy)-1-(1-(2-(pyrrolidin-1-yl)ethyl)-1H-indazol-5-yl)pyridin-2(1H)-one and membranes prepared from stable CHO-K1 cells expressing the human MCH-1 receptor obtained from Euroscreen (Batch 1138). Cell membrane homogenates (8.92 μg protein) were incubated for 60 min at 25° C. with 1.4 nM of the [^3H]-labeled compound in the absence or presence of the test compound in 50 mM Tris-HCl buffer, pH 7.4. Nonspecific binding was determined in the presence of 50 μM 1-(5-(4-cyanophenyl)bicyclo[3.1.0]hexan-2-yl)-3-(4-fluoro-3-(trifluoromethyl)phenyl)-1-(3-(4-methylpiperazin-1-yl)propyl)urea. Following incubation, the samples were filtered rapidly under vacuum through Skatron 11731 filters, pre-soaked in 0.5% polyethylenimine, and washed with ice-cold 50 mM Tris-HCl buffer, pH 7.4, (wash setting 9,9,0) using a Skatron cell harvester. The filters were counted for radioactivity in a liquid scintillation counter (Tri-Carb 2100TR, Packard) using a scintillation cocktail (Ultima Gold MV, Perkin Elmer).
The results are expressed as a percent inhibition of the control radioligand specific binding. The IC50 value (concentration causing a half-maximal inhibition of control specific binding) and Hill coefficient (nH) were determined by non-linear regression analysis of the competition curve using Hill equation curve fitting. The inhibition constant (Ki) was calculated from the Cheng Prusoff equation: (Ki=IC50/(1+(L/KD)), where L=concentration of radioligand in the assay, and KD=affinity of the radioligand for the receptor.

CC1Cc2c(c3ccc(N4CCN(CCc5ccc(F)cc5)CC4=O)cc3n2C)CN1.Cl (single isomer, unassigned; enantiomer a) [Example 15, 1-(3,5-Dimethyl-2,3,4,5-tetrahydro-1H-pyrido[4,3-b]indol-7-yl)-4-(4-fluorophenethyl)piperazin-2-one hydrochloride (Enantiomer A)]
pKi (human MCH-1 receptor): 7.96
melting point: 295 to 300 °C

CC1Cc2c(c3ccc(N4CCN(CCc5ccc(Cl)cc5)CC4=O)cc3n2C)CN1 (single isomer, unassigned; enantiomer a) [Example 17, 4-(4-Chlorophenethyl)-1-(3,5-dimethyl-2,3,4,5-tetrahydro-1H-pyrido[4,3-b]indol-7-yl)piperazin-2-one hydrochloride (Enantiomer A)]
pKi (human MCH-1 receptor): 8.12

CC(=O)N1Cc2c(n(C)c3cc(N4CCN(CCc5ccc(Cl)cc5)CC4=O)ccc23)CC1C (single isomer, unassigned; enantiomer a) [Example 18, 1-(2-Acetyl-3,5-dimethyl-2,3,4,5-tetrahydro-1H-pyrido[4,3-b]indol-7-yl)-4-(4-chlorophenethyl)piperazin-2-one (Enantiomer A)]
pKi (human MCH-1 receptor): 7.31

Cn1c2c(c3ccc(N4CCN(CCc5ccccc5)CC4=O)cc31)CCNC2 [Example 2, 1-(9-Methyl-2,3,4,9-tetrahydro-1H-pyrido[3,4-b]indol-7-yl)-4-phenethylpiperazin-2-one hydrochloride]
pKi (human MCH-1 receptor): 7.59

Cn1c2c(c3ccc(N4CCN(CCc5ccccn5)CC4=O)cc31)CCNC2 [Example 3, 1-(9-Methyl-2,3,4,9-tetrahydro-1H-pyrido[3,4-b]indol-7-yl)-4-(2-(pyridin-2-yl)ethyl)piperazin-2-one dihydrochloride]
pKi (human MCH-1 receptor): 7.37

CN1CCc2c(n(C)c3cc(N4CCN(CCc5ccccc5)CC4=O)ccc23)C1 [Example 4, 1-(2,9-Dimethyl-2,3,4,9-tetrahydro-1H-pyrido[3,4-b]indol-7-yl)-4-phenethylpiperazin-2-one dihydrochloride]
pKi (human MCH-1 receptor): 7.68

Cn1c2c(c3ccc(N4CCN(c5ccc(C(F)(F)F)cn5)CC4=O)cc31)CNCC2 [Example 5, 1-(5-Methyl-2,3,4,5-tetrahydro-1H-pyrido[4,3-b]indol-7-yl)-4-(5-(trifluoromethyl)pyridin-2-yl)piperazin-2-one dihydrochloride]
pKi (human MCH-1 receptor): 6.27

Cn1c2c(c3ccc(N4CCN(CCc5ccccc5)CC4=O)cc31)CNCC2 [Example 6, 1-(5-Methyl-2,3,4,5-tetrahydro-1H-pyrido[4,3-b]indol-7-yl)-4-phenethylpiperazin-2-one dihydrochloride]
pKi (human MCH-1 receptor): 7.96

CN1CCc2c(c3ccc(N4CCN(CCc5ccccc5)CC4=O)cc3n2C)C1 [Example 7, 1-(2,5-Dimethyl-2,3,4,5-tetrahydro-1H-pyrido[4,3-b]indol-7-yl)-4-phenethylpiperazin-2-one hydrochloride]
pKi (human MCH-1 receptor): 7.92

Cn1c2c(c3ccc(N4CCN(CCc5ccccn5)CC4=O)cc31)CNCC2 [Example 8, 1-(5-Methyl-2,3,4,5-tetrahydro-1H-pyrido[4,3-b]indol-7-yl)-4-(2-(pyridin-2-yl)ethyl)piperazin-2-one dihydrochloride]
pKi (human MCH-1 receptor): 6.91

O=C1CN(CCc2ccccc2)CCN1c1ccc2c3c([nH]c2c1)CCNC3 [Example 9, 4-Phenethyl-1-(2,3,4,5-tetrahydro-1H-pyrido[4,3-b]indol-7-yl)piperazin-2-one dihydrochloride]
pKi (human MCH-1 receptor): 7.77

CC(=O)N1CCc2c(c3ccc(N4CCN(CCc5ccccc5)CC4=O)cc3n2C)C1 [Example 10, 1-(2-Acetyl-5-methyl-2,3,4,5-tetrahydro-1H-pyrido[4,3-b]indol-7-yl)-4-phenethylpiperazin-2-one]
pKi (human MCH-1 receptor): 7.24

Cn1c2c(c3ccc(N4CCN(CCc5ccc(F)cc5)CC4=O)cc31)CNCC2 [Example 11, 4-(4-Fluorophenethyl)-1-(5-methyl-2,3,4,5-tetrahydro-1H-pyrido[4,3-b]indol-7-yl)piperazin-2-one dihydrochloride]
pKi (human MCH-1 receptor): 8.15

CC1Cc2c(c3ccc(N4CCN(CCc5ccc(F)cc5)CC4=O)cc3n2C)CN1.Cl (centres unmarked) [Example 12, 1-(3,5-Dimethyl-2,3,4,5-tetrahydro-1H-pyrido[4,3-b]indol-7-yl)-4-(4-fluorophenethyl)piperazin-2-one hydrochloride]
pKi (human MCH-1 receptor): 8.01
melting point: 280 to 285 °C

CC1Cc2c(c3ccc(N4CCN(CCc5ccc(Cl)cc5)CC4=O)cc3n2C)CN1.Cl (centres unmarked) [Example 13, 4-(4-Chlorophenethyl)-1-(3,5-dimethyl-2,3,4,5-tetrahydro-1H-pyrido[4,3-b]indol-7-yl)piperazin-2-one hydrochloride]
pKi (human MCH-1 receptor): 8.28
melting point: 294 to 300 °C

Cn1c2c(c3ccc(N4CCN(CCc5ccc(Cl)cc5)CC4=O)cc31)CNCC2 [Example 14, 4-(4-Chlorophenethyl)-1-(5-methyl-2,3,4,5-tetrahydro-1H-pyrido[4,3-b]indol-7-yl)piperazin-2-one dihydrochloride]
pKi (human MCH-1 receptor): 8.24

Cn1c2c(c3ccc(N4CCN(CCc5ccc(F)cc5)CC4=O)cc31)C(C)(C)NCC2 [Example 16, 4-(4-Fluorophenethyl)-1-(1,1,5-trimethyl-2,3,4,5-tetrahydro-1H-pyrido[4,3-b]indol-7-yl)piperazin-2-one dihydrochloride]
pKi (human MCH-1 receptor): 7.77
